assay: MIC of the examples against various organisms; format: cell-based; conditions: against at least two of the above organisms (12-strain panel)
Method: The MIC (μg/ml) of the examples against various organisms was determined: A. baumannii ATCC19606, E. cloacae ATCC23355, E. coli ATCC25922, K. pneumoniae ATCC27736, P. mirabilis ATCC29906, P. aeruginosa ATCC27853, S. maltophilia ATCC13637, S. aureus ATCC43300, S. epidermidis ATCC14990, S. haemolyticus ATCC29970, E. faecalis ATCC29212 and E. faecium ATC19434.

Q: For `COc1cnc2cccc(C(O)CN3C4CCC3CC(NC/C=C/c3ccccc3)C4)c2n1` (stereo not drawn) [Example 86, 1-(3-Methoxy-quinoxalin-5-yl)-2-[3-((E)-3-phenylallylamino)-8-aza-bicyclo[3.2.1]oct-8-yl]-ethanol], which MIC is on record?
A: Its MIC is ≤ 2 µg/mL.

Q: With `COc1cnc2cccc(C(O)CN3CCCC(CNCc4ccc5c(c4)NC(=O)CO5)C3)c2c1` (single isomer, unassigned) [Example 45, 6-[({1-[2-Hydroxy-2-(3-methoxy-quinolin-5-yl)-ethyl]-piperidin-3-ylmethyl}-amino)-methyl]-4H-benzo[1,4]oxazin-3-one] as the molecule, how does the MIC read?
A: The MIC was ≤ 2 µg/mL.

Q: For `COc1cnc2cccc(C(O)CN3CCCC(CNCc4cc5c(cn4)OCCO5)C3)c2n1` (stereo not drawn) [Example 88, 2-(3-{[(2,3-Dihydro-[1,4]dioxino[2,3-c]pyridin-7-ylmethyl)-amino]-methyl}-piperidin-1-yl)-1-(3-methoxyquinoxalin-5-yl)-ethanol], which MIC is on record?
A: The MIC was ≤ 2 µg/mL.

Q: Which MIC does the source give for `COc1cnc2cccc(C(O)CN3CCCC(CNCc4ccc5c(c4)NC(=O)CS5)C3)c2n1` (stereo not drawn) [Example 91, 6-[({1-[2-Hydroxy-2-(3-methoxy-quinoxalin-5-yl)-ethyl]-piperidin-3-ylmethyl}-amino)-methyl]-4H-benzo[1,4]thiazin-3-one] here?
A: Its MIC is ≤ 2 µg/mL.

Q: For `COc1ccc2nccc(NC(=O)C3CCCC(CNCc4cc5c(cc4F)SCC(=O)N5)C3)c2n1` (stereo not drawn) [Example 24, 3-{[(7-Fluoro-3-oxo-3,4-dihydro-2H-benzo[1,4]thiazin-6-ylmethyl)-amino]-methyl}-cyclohexanecarboxylic acid (6-methoxy-[1,5]-naphthyridin-4-yl)-amide], which MIC is on record?
A: Its MIC is ≤ 2 µg/mL.

Q: For `COc1ccc2nccc(NC(=O)C3CCCC(CNCc4ccc5c(c4)NC(=O)CS5)C3)c2n1` (stereo not drawn) [Example 16, 3-{[(3-Oxo-3,4-dihydro-2H-benzo[1,4]thiazin-6-ylmethyl)-amino]-methyl}-cyclohexanecarboxylic acid (6-methoxy-[1,5]-naphthyridin-4-yl)-amide], which MIC is on record?
A: The MIC was ≤ 2 µg/mL.

Q: For `COc1cnc2cccc(C(O)CN3CCCC(CNCc4ccc5c(c4)OCCO5)C3)c2n1` (stereo not drawn) [Example 92, 2-(3-{[(2,3-Dihydro-benzo[1,4]dioxin-6-ylmethyl)-amino]-methyl}-piperidin-1-yl)-1-(3-methoxy-quinoxalin-5-yl)-ethanol], which MIC is on record?
A: Its MIC is ≤ 2 µg/mL.

Q: Which MIC does the source give for `COc1cnc2cccc(C(O)CN3C4CCC3CC(NCc3cc5c(cc3F)SCC(=O)N5)C4)c2n1` (stereo not drawn) [Example 84, 7-Fluoro-6-({8-[2-hydroxy-2-(3-methoxy-quinoxalin-5-yl)-ethyl]-8-aza-bicyclo[3.2.1]oct-3-ylamino}-methyl)-4H-benzo[1,4]thiazin-3-one] here?
A: The MIC was ≤ 2 µg/mL.

Q: Which MIC does the source give for `COc1cnc2cccc(C(O)CN3C4CCC3CC(NCc3ccc5c(n3)NC(=O)CS5)C4)c2n1` (stereo not drawn) [Example 79, 6-({8-[2-Hydroxy-2-(3-methoxy-quinoxalin-5-yl)-ethyl]-8-aza-bicyclo[3.2.1]oct-3-ylamino}-methyl)-4H-pyrido[3,2-b][1,4]thiazin-3-one] here?
A: The MIC was ≤ 2 µg/mL.

Q: With `COc1ccc2nccc(C(O)CN3CCCC(CNCc4ccc5c(c4)OCCO5)C3)c2n1` (single isomer, unassigned) [Example 3, 2-(3-{[(2,3-Dihydro-benzo[1,4]dioxin-6-ylmethyl)-amino]-methyl}-piperidin-1-yl)-1-(6-methoxy-[1,5]-naphthyridin-4-yl)-ethanol] as the molecule, how does the MIC read?
A: The MIC was ≤ 2 µg/mL.

Q: Which MIC does the source give for `COc1ccc2nccc(NC(=O)C3CCCC(CNC/C=C/c4ccccc4)C3)c2c1` (stereo not drawn) [Example 53, 3-[((E)-3-Phenyl-allylamino)-methyl]-cyclohexanecarboxylic acid (6-methoxy-quinolin-4-yl)-amide] here?
A: The MIC was ≤ 2 µg/mL.

Q: For `COc1ccc2ncc(Cl)c(C(O)CN3CCOC(CNCc4ccc5nsnc5c4)C3)c2c1` (single isomer, unassigned) [Example 74, 2-(2-{[(Benzo[1,2,5]thiadiazol-5-ylmethyl)-amino]-methyl}-morpholin-4-yl)-1-(3-chloro-6-methoxy-quinolin-4-yl)-ethanol], which MIC is on record?
A: The MIC was ≤ 2 µg/mL.

Reference: US20070244103A1, “Novel Compounds Having an Anti-Bacterial Activity” (Morphochem Aktiengesellschaft Fur Kombinatorische Chemie, priority 2004, published 2007)
